Assay results published in patent US10131928B2, “Inositol biotransformation” (University Court of the University of St Andrews, priority 2013, dated 2018).
Where two headings read alike, the source gives them in different places.

Tests used:
Assay type in all cases: biochemical
TbINO1 [1] = molecular target: T1, TbINO1 (Trypanosoma brucei brucei, UniProt Q5QQ46); test: biochemical
T1 construct: Hexa-His (N); made in house; host or cells: E. coli BL21 Rosetta (DE3)
T1 sequence (Q5QQ46 1-528): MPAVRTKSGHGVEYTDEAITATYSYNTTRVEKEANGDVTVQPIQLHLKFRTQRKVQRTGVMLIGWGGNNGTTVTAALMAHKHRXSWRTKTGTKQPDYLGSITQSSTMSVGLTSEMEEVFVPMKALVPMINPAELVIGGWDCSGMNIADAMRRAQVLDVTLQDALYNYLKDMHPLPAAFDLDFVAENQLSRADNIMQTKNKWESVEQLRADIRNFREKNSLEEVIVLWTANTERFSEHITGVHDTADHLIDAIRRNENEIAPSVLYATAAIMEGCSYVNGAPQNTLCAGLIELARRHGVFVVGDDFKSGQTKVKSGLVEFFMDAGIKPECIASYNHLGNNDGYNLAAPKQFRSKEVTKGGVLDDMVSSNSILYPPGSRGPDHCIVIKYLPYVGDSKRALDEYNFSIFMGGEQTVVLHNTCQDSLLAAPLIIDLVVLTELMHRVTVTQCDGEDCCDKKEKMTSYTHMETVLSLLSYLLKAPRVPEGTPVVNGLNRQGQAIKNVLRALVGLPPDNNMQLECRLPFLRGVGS
Procedure: (§1) An alternative reaction mixture consisted of 2 mM Tris-Ac (pH 9), 2 mM glucose-6-phosphate, 1 mM NAD^+, 1 mM DTT, 2 mM NH4Ac and 5 μg protein in a final volume of 20 μL. The reaction was incubated at 37° C. for 1 hr and terminated by heating at 100° C. for 10 min and the addition of 80 μL of 10 mM NaOH. For inhibitor studies the standard reaction mixture was prepared without glucose-6-phosphate, the inhibitor was added to the reaction and incubated on ice for 10 min prior to the addition of glucose-6-phosphate and subsequent incubation of 37° C. for 1 hr.
(§2) After quenching the reaction mix was analysed by high performance anion-exchange chromatography using a Dionex HPLC system with a CarboPacPA-1 column and PA-1 guard column (Dionex). The column was pre-equilibrated with 95% Buffer A (1 mM sodium hydroxide) and 5% Buffer B (1M sodium acetate+1 mM sodium hydroxide). An aliquot (20 μL) of the quenched reaction mixture was injected onto the column and eluted a linear gradient of 5-40% […], detected with pulsed amperometric detection and analysed with Chromeleon software (Dionex).
(§3) The TbINO1 was pre-incubated with potential inhibitor prior to the addition of glucose-6-phosphate or fructose-6-phosphate and quantification of inositol-3-phosphate and fructose-6-phosphate by HPLC.

TbINO1 [2] = molecular target: T1, TbINO1; test: biochemical; remark: listed apart in the source
Procedure: as §1, §2, §3

TbINO1 [3] = molecular target: T1, TbINO1; test: Compounds tested as substrates for TbINO1 in the standard reaction mixture, products separated by HPLC; conditions: tested as substrate, longer time periods; intermediate conversion to glucose-6-phosphate
Procedure: as §1
as §2, with “software (Dionex). The substrate glucose-6-phosphate and the product inositol-3-phosphate are clearly separated by this method. […]” for “software (Dionex).”

[4] = Table 3, metabolic intermediates, pre-incubated, fructose-6-phosphate as substrate, read-out: IC50 PGI activity
[5] = Table 3, metabolic intermediates, pre-incubated, glucose-6-phosphate as substrate, read-out: IC50 INO1 activity
[6] = Table 2, inhibitor pre-incubated with recombinant TbINO1, fructose-6-phosphate as substrate, read-out: IC50 PGI activity
[7] = Table 2, inhibitor pre-incubated with recombinant TbINO1, glucose-6-phosphate as substrate, read-out: IC50 INO1 activity

| Structure (SMILES) | inhibition of PGI (glucose-6-phosphate isomerase) activity (TbINO1 [1]) | IC50 (TbINO1 [1]; [4]) [mM] | inhibition of INO1 activity (TbINO1 [2]) | IC50 (TbINO1 [2]; [5]) [mM] | IC50 (TbINO1 [1]; [6]) [mM] | IC50 (TbINO1 [2]; [7]) [mM] | IC50 (TbINO1 [1]) [mM] | IC50 (TbINO1 [2]) [mM] | conversion to inositol-3-phosphate by TbINO1 (TbINO1 [3]) |
| --- | --- | --- | --- | --- | --- | --- | --- | --- | --- |
| O=C(CO)COP(=O)(O)O [DHAP] | Inhibition was observed | 3 | Inhibition was observed | 3 | – | – | – | – | – |
| O=C(O)CC(=O)C(=O)O [OAA] | Inhibition was observed | 2 | Inhibition was observed | 1.5 | – | – | – | – | – |
| CC(=O)N[C@H]1C(O)O[C@H](COP(=O)(O)O)[C@@H](O)[C@@H]1O (some centres unmarked) [Acetylglucosamine-6-P, acetylglucosamine-6-phosphate] | No inhibition | – | No inhibition | – | > 10 | > 10 | – | – | – |
| O=P(O)(O)OC[C@H]1OC(O)[C@H](F)[C@@H](O)[C@@H]1O (some centres unmarked) [2-F-Glucose-6-P, 2-fluoro-glucose-6-phospahte] | – | – | – | – | 1 | 1 | – | – | – |
| CCCC(CCC)C(=O)O [VPA] | No inhibition | > 10 | No inhibition | > 10 | – | – | – | – | – |
| O=C[C@@H](O)[C@@H](O)[C@H](O)[C@H](O)COP(=O)(O)O [Mannose-6-P, mannose-6-phosphate] | No inhibition | – | No inhibition | – | – | – | > 10 | > 10 | – |
| CC(=O)N[C@H]1C(OP(=O)(O)O)O[C@H](CO)[C@@H](O)[C@@H]1O (some centres unmarked) [Acetylglucosamine-1-P, acetylglucosamine-1-phosphate] | No inhibition | – | No inhibition | – | > 10 | > 10 | – | – | – |
| O=C(O)[C@H](O)[C@@H](O)[C@H](O)[C@H](O)COP(=O)(O)O [6-phosphogluconic acid] | No inhibition | – | No inhibition | – | – | – | > 10 | > 10 | – |
| O=CC(O)CO (centres unmarked) [Glyceraldehyde, glyceraldehyde] | no inhibition | – | no inhibition | – | – | – | > 10 | > 10 | – |
| COC1O[C@H](COP(=O)(O)O)[C@@H](O)[C@H](O)[C@H]1O (some centres unmarked) [1-OMe-Glucose-6-P, glucose-1-O-methyl-6-phospahte] | – | – | – | – | 2.5 | 2.5 | – | – | – |
| O=P(O)(O)O[C@H]1O[C@H](CO)[C@@H](O)[C@H](O)[C@H]1O [Glucose-1-P, glucose-1-phosphate] | No inhibition | – | No inhibition | – | > 10 | > 10 | – | – | – |
| O=P(O)(O)OC[C@H]1OC(O)[C@H](O)[C@@H](F)[C@@H]1O (some centres unmarked) [3-F-Glucose-6-P, 3-fluoro-glucose-6-phospahte] | – | – | – | – | – | – | 2.5 | 2.5 | – |
| O=CC[C@@H](O)[C@H](O)[C@H](O)CO [2-Deoxyglucose] | – | – | – | – | – | – | > 10 | > 10 | – |
| C=C(OP(=O)(O)O)C(=O)O [PEP] | No inhibition | > 10 | No inhibition | > 10 | – | – | – | – | – |
| O=P(O)(O)OC[C@H]1OC(O)C[C@@H](O)[C@@H]1O (some centres unmarked) [2-Deoxyglucose-6-P] | – | – | – | – | – | – | 4 | 4 | – |
| O=C[C@H](O)[C@@H](O)[C@@H](O)[C@H](O)COP(=O)(O)O [Galactose-6-P, galactose-6-phosphate] | No inhibition | – | No inhibition | – | – | – | > 10 | > 10 | – |
| O=C(CO)CO [DHA] | no inhibition | > 10 | no inhibition | > 10 | – | – | – | – | – |
| O=P(O)(O)OCC(O)CO (centres unmarked) [Glycerophosphate] | No inhibition | – | No inhibition | – | > 10 | > 10 | – | – | – |
| CC(=O)C(=O)O [Pyruvate, pyruvate] | – | – | – | – | – | – | > 10 | > 10 | – |
| O=P(O)(O)OC[C@H]1OC(O)[C@H](O)[C@@H](O)[C@@H]1F (some centres unmarked) [4-F-Glucose-6-P, 4-fluoro-glucose-6-phospahte] | – | – | – | – | – | – | > 10 | > 10 | – |
| O=C(CO)[C@@H](O)[C@H](O)[C@H](O)COP(=O)(O)O [fructose-6-phosphate] | – | – | – | – | – | – | – | – | quantitative conversion |
| O=C[C@H](O)COP(=O)(O)O [GAP] | Inhibition was observed | 2 | Inhibition was observed | 2 | – | – | – | – | – |
